Laboratory results as given in PubChem BioAssay (NCI).
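Method: 48-hour compound exposure of cells in 96-well plates, five concentrations, linear interpolation of endpoints. TGI: total growth inhibition.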

Legend:
Assay in all cases: growth of human tumour cells (NCI), 48 h
A549 NSCLC = system: A549 NSCLC
ACHN renal = system: ACHN renal
CCRF-CEM leukemia = system: CCRF-CEM leukemia
COLO 205 colon = system: COLO 205 colon
DLD-1 colon = system: DLD-1 colon
HCC-2998 colon = system: HCC-2998 colon
HCT-116 colon = system: HCT-116 colon
HL-60(TB) leukemia = system: HL-60(TB) leukemia
HOP-62 NSCLC = system: HOP-62 NSCLC
HOP-92 NSCLC = system: HOP-92 NSCLC
HT29 colon = system: HT29 colon
IGROV1 ovarian = system: IGROV1 ovarian
K-562 leukemia = system: K-562 leukemia
KM12 colon = system: KM12 colon
LXFL 529 NSCLC = system: LXFL 529 NSCLC
M19-MEL melanoma = system: M19-MEL melanoma
MOLT-4 leukemia = system: MOLT-4 leukemia
NCI-H226 lung = system: NCI-H226 lung
NCI-H23 lung = system: NCI-H23 lung
NCI-H460 lung = system: NCI-H460 lung
NCI-H522 lung = system: NCI-H522 lung
OVCAR-3 ovarian = system: OVCAR-3 ovarian
OVCAR-5 ovarian = system: OVCAR-5 ovarian
OVCAR-8 ovarian = system: OVCAR-8 ovarian
RPMI-8226 leukemia = system: RPMI-8226 leukemia
SF-268 CNS = system: SF-268 CNS
SF-295 CNS = system: SF-295 CNS
SF-539 CNS = system: SF-539 CNS
SK-MEL-28 melanoma = system: SK-MEL-28 melanoma
SK-MEL-5 melanoma = system: SK-MEL-5 melanoma
SK-OV-3 ovarian = system: SK-OV-3 ovarian
SNB-19 CNS = system: SNB-19 CNS
SNB-75 CNS = system: SNB-75 CNS
SR leukemia = system: SR leukemia
SW-620 colon = system: SW-620 colon
TK-10 renal = system: TK-10 renal
U251 CNS = system: U251 CNS
UACC-257 melanoma = system: UACC-257 melanoma
UACC-62 melanoma = system: UACC-62 melanoma
UO-31 renal = system: UO-31 renal
786-0 renal = system: 786-0 renal
CAKI-1 renal = system: CAKI-1 renal
DMS 114 small cell lung = system: DMS 114 small cell lung
EKVX NSCLC = system: EKVX NSCLC
HCT-15 colon = system: HCT-15 colon
KM20L2 colon = system: KM20L2 colon
LOX IMVI melanoma = system: LOX IMVI melanoma
M14 melanoma = system: M14 melanoma
MALME-3M melanoma = system: MALME-3M melanoma
OVCAR-4 ovarian = system: OVCAR-4 ovarian
RXF 393 renal = system: RXF 393 renal
SK-MEL-2 melanoma = system: SK-MEL-2 melanoma
SN12C renal = system: SN12C renal
SNB-78 CNS = system: SNB-78 CNS

Q: Which results are given for COc1ccc(/C=N/n2cnc3c(sc(=S)n3-c3ccccc3)c2=O)cc1?
A: TGI (A549 NSCLC): > 100 µM; TGI (ACHN renal): > 100 µM; TGI (CCRF-CEM leukemia): 57.8 µM; TGI (COLO 205 colon): > 100 µM; TGI (DLD-1 colon): > 100 µM; TGI (HCC-2998 colon): > 100 µM; TGI (HCT-116 colon): > 100 µM; TGI (HL-60(TB) leukemia): 37.9 µM; TGI (HOP-62 NSCLC): 37.3 µM; TGI (HOP-92 NSCLC): 29.6 µM; TGI (HT29 colon): > 100 µM; TGI (IGROV1 ovarian): > 100 µM; TGI (K-562 leukemia): 48.8 µM; TGI (KM12 colon): > 100 µM; TGI (LXFL 529 NSCLC): 48.8 µM; TGI (M19-MEL melanoma): > 100 µM; TGI (MOLT-4 leukemia): 90.9 µM; TGI (NCI-H226 lung): 54.4 µM; TGI (NCI-H23 lung): 87.3 µM; TGI (NCI-H460 lung): > 100 µM; TGI (NCI-H522 lung): 30.1 µM; TGI (OVCAR-3 ovarian): 38.1 µM; TGI (OVCAR-5 ovarian): > 100 µM; TGI (OVCAR-8 ovarian): > 100 µM; TGI (RPMI-8226 leukemia): 58.8 µM; TGI (SF-268 CNS): 38.8 µM; TGI (SF-295 CNS): 31.5 µM; TGI (SF-539 CNS): 28.5 µM; TGI (SK-MEL-28 melanoma): 38.6 µM; TGI (SK-MEL-5 melanoma): > 100 µM; TGI (SK-OV-3 ovarian): 58.6 µM; TGI (SNB-19 CNS): 77.5 µM; TGI (SNB-75 CNS): 7.87 µM; TGI (SR leukemia): > 100 µM; TGI (SW-620 colon): > 100 µM; TGI (TK-10 renal): 65.4 µM; TGI (U251 CNS): > 100 µM; TGI (UACC-257 melanoma): > 100 µM; TGI (UACC-62 melanoma): 49.8 µM; TGI (UO-31 renal): > 100 µM

Q: COc1ccc(OC)c2c1CC(C(=O)O)(C(=O)O)CC2=O was tested. Which TGI (786-0 renal) did it give?
A: > 100 µM

Q: What about the TGI (A549 NSCLC) of the same molecule?
A: > 100 µM

Q: What about the TGI (ACHN renal) of the same molecule?
A: > 100 µM

Q: What about the TGI (CAKI-1 renal) of the same molecule?
A: > 100 µM

Q: What about the TGI (DMS 114 small cell lung) of the same molecule?
A: > 100 µM

Q: And the TGI (EKVX NSCLC)?
A: > 100 µM

Q: And the TGI (HCC-2998 colon)?
A: > 100 µM

Q: And the TGI (HCT-116 colon)?
A: > 100 µM

Q: What about the TGI (HCT-15 colon) of the same molecule?
A: > 100 µM

Q: What about the TGI (HL-60(TB) leukemia) of the same molecule?
A: > 100 µM

Q: What about the TGI (HOP-62 NSCLC) of the same molecule?
A: > 100 µM

Q: And the TGI (HOP-92 NSCLC)?
A: > 100 µM

Q: What about the TGI (IGROV1 ovarian) of the same molecule?
A: > 100 µM

Q: What about the TGI (K-562 leukemia) of the same molecule?
A: > 100 µM

Q: And the TGI (KM12 colon)?
A: > 100 µM

Q: What about the TGI (KM20L2 colon) of the same molecule?
A: > 100 µM

Q: What about the TGI (LOX IMVI melanoma) of the same molecule?
A: > 100 µM

Q: What about the TGI (LXFL 529 NSCLC) of the same molecule?
A: > 100 µM

Q: And the TGI (M14 melanoma)?
A: > 100 µM

Q: And the TGI (MALME-3M melanoma)?
A: > 100 µM

Q: What about the TGI (MOLT-4 leukemia) of the same molecule?
A: > 100 µM

Q: What about the TGI (NCI-H226 lung) of the same molecule?
A: > 100 µM

Q: What about the TGI (NCI-H23 lung) of the same molecule?
A: > 100 µM

Q: And the TGI (OVCAR-3 ovarian)?
A: > 100 µM

Q: And the TGI (OVCAR-4 ovarian)?
A: > 100 µM

Q: What about the TGI (OVCAR-5 ovarian) of the same molecule?
A: > 100 µM

Q: And the TGI (RXF 393 renal)?
A: > 100 µM

Q: And the TGI (SF-268 CNS)?
A: > 100 µM

Q: And the TGI (SK-MEL-2 melanoma)?
A: > 100 µM

Q: And the TGI (SK-MEL-28 melanoma)?
A: > 100 µM

Q: What about the TGI (SK-MEL-5 melanoma) of the same molecule?
A: > 100 µM

Q: What about the TGI (SK-OV-3 ovarian) of the same molecule?
A: > 100 µM

Q: And the TGI (SN12C renal)?
A: > 100 µM

Q: And the TGI (SNB-19 CNS)?
A: > 100 µM

Q: What about the TGI (SNB-75 CNS) of the same molecule?
A: > 100 µM

Q: And the TGI (SNB-78 CNS)?
A: > 100 µM

Q: And the TGI (SW-620 colon)?
A: > 100 µM

Q: What about the TGI (TK-10 renal) of the same molecule?
A: > 100 µM

Q: What about the TGI (U251 CNS) of the same molecule?
A: > 100 µM

Q: What about the TGI (UACC-62 melanoma) of the same molecule?
A: > 100 µM

Q: And the TGI (UO-31 renal)?
A: > 100 µM
